pIC50: −log10 of the molar value.

Consider 1 compound from patent US12479866B2, “Boron-containing rho kinase inhibitors” (Percipiad, Inc., priority 2019, dated 2025).

One data set addresses ROCK2 (Homo sapiens (Human), UniProt O75116). The data set is described as follows: ROCK2 ADP-Glo kinase enzyme inhibition assay. The following applies: Exp #3; read-out: ROCK2 IC50(Exp #3). Type of data set: biochemical. Here is the method:
We measured ROCK and PKA kinase enzyme activity inhibition by compounds using commercially available ROCK1 (Promega Corporation, cat #V9581), ROCK2 (Promega, cat #V4045), and PKA kinase (Promega, cat #V4247) ADP-Glo™ assay kits. ADP-Glo™ Kinase Assay is a luminescent ADP detection assay that provides a homogeneous method to measure kinase activity by quantifying the amount of ADP produced during a kinase reaction. The assay is performed in two steps. First, after the kinase reaction, an equal volume of ADP-Glo™ Reagent is added to terminate the kinase reaction and deplete the remaining ATP. Second, the Kinase Detection Reagent is added to simultaneously convert ADP to ATP and allow the newly synthesized ATP to be measured using a luciferase/luciferin reaction. The light generated is measured using a luminometer. A complete protocol is included with the kits and is also available at the Promega website. The assay is briefly described below. • 1. Diluted enzyme, substrate, ATP, and compounds (inhibitors) in Kinase Buffer (40 mM Tris, 7.5, 20 mM MgCl2, 0.1 mg/ml BSA, 50 μM DTT). • 2. Added 1 μl of inhibitor, 2 μl of enzyme and 2 μl of substrate/ATP mix to the wells of 384-well low volume nonbinding assay plate A series of three-fold dilution of inhibitor was prepared and assayed for each inhibitor. • 3. Incubated at room temperature for 60 minutes. • 4. Added 5 μl of ADP-Glo™ Reagent. • 5. Incubated at room temperature for 60 minutes. • 6. Added 10 μl of Kinase Detection Reagent • 7. Incubated at room temperature for 30 minutes.
Recorded luminescence (Integration time 1 second) using a plate-based luminometer.
Calculated Percent Enzyme Activity: First subtract the signal of the negative control (no enzyme and no inhibitor) from each sample's signal. Then use the mean relative light units (RLU) values for the 0% kinase activity (neither inhibitor nor enzyme) and the 100% kinase activity (no compound) to calculate the other percent enzyme activities remaining in the presence of the different dilutions of inhibitor.
Inhibitor stock solutions of 10 mM are made in DMSO and stored at −20° C. Dilutions were made in assay buffer immediately before use.
In general terms: ADP-Glo first removes unused ATP, then detects ADP through luciferase.

A further data set has as its target CDK2/CyclinE1 (Homo sapiens (Human), UniProt P24941). As to the kind of experiment: Kinase Selectivity Profiling General Panel (ADP-Glo). Type of data set: biochemical. Particulars: 1 μM compound, read-out: Percent enzyme activity inhibition, CDK2/CyclinE1. As for the experimental part:
After this incubation, 5 μl of ADP-Glo™ reagent was added to 5 μl reaction and incubated for 40 minutes. Then, 10 μl of Kinase Detection Reagent added to all assay wells in the assay plate and incubated at room temperature for 30 minutes.

In data set [1] the target is PKA-NanoLuc fusion protein (Homo sapiens (Human), UniProt P17612). The data set is described as follows: PKA-NanoBRET Target Engagement Intracellular Kinase Assay in HEK293 cells. The following applies: live HEK293 cells, 2 hours; read-out: Estimated IC50, inhibition of NanoBRET tracer binding to PKA. The format is cell-based. As for the experimental part:
NanoBRET™ TE assay is based on the NanoBRET™ System, an energy transfer technique designed to measure molecular proximity in living cells. The NanoBRET™ TE assay measures the apparent affinity of test compounds by competitive displacement of the NanoBRET™ tracer, reversibly bound to a NanoLuc® luciferase-kinase fusions in cells. Using the NanoBRET™ TE Kinase Assay, a fixed concentration of tracer is added to cells expressing the desired NanoLuc® kinase fusion to generate a BRET signal. […] Centrifuged culture, resuspended cells in fresh culture media, and dispense 85 ul in to wells of 96-well plate. • 3. […] Added 10 μl of 10× serially diluted inhibitor compound per well containing cells with IX NanoBRET Tracer Reagent. Thoroughly mixed plate on an orbital shaker for 15 seconds at 700 rpm. • 5. […] Equilibrated plate to room temperature for ˜15 minutes. • 6. […] Measured donor emission wavelength (450 nm) and acceptor emission wavelength (610 nm) using the GloMax® Discover System (Promega). To generate raw BRET ratio values, divided the acceptor emission value (610 nm) by the donor emission value (450 nm) for each sample.

Data set [2] has as its system primary hTM cells. The data set is described as follows: RealTime-Glo MT cell viability assay in hTM cells. Type of data set: cell-based. The following applies: all concentrations and time points (24 h, 48 h, 72 h). From the text: (§1) Commercially available RealTime-Glo™ MT cell viability (Promega, catalog #G9712) and CellTox™ Green cytotoxicity (Promega, catalog #G8731) assays were used in assessing effect of compounds on primary hTM cell viability and cytotoxicity. The RealTime-Glo™ MT cell viability assay is a nonlytic, homogeneous, bioluminescent method that determines the number of viable cells in culture by measuring the reducing potential of cells and thus metabolism (MT). Viable cells reduce the proprietary pro-substrate to generate a substrate for NanoLuc® luciferase. This substrate diffuses from cells into the surrounding culture medium, where it is rapidly used by the NanoLuc® Enzyme to produce a luminescent signal. In a contrasting and complementary manner, CellTox™ Green cytotoxicity assay measures changes in membrane integrity that occur as a result of cell death. This assay system uses a proprietary asymmetric cyanine dye that is excluded from viable cells but preferentially stains the dead cells' DNA. The fluorescent signal produced by the dye binding to the dead-cell DNA is proportional to cytotoxicity.
Human™ cells were cultured and maintained as described in Example 12. Fifty μl cells (600 cells) in culture media containing compound, 25 μl media with RealTime-Glo™ MT cell viability assay reagent and 25 μl media with CellTox™ Green cytotoxicity assay reagent were plated in black, clear bottom 96-well plates. Light emitted by luciferase and fluorescence emitted by dye binding to DNA (excitation 485 nm and emission 525 nm) were measured at 24 h, 48 h, and 72 h after incubation using plate based luminescence and fluorescence plate readers.

Data set [3] relates to primary hTM cells. As to the kind of experiment: CellTox Green cytotoxicity assay in hTM cells. Type of data set: cell-based. The following applies: 24 h, 48 h, 72 h.
Excerpt: as §1, with “The fluorescent signal produced by the dye binding to the dead-cell DNA is proportional to cytotoxicity.” left out
Human™ cells were cultured and maintained as described in Example 12. […] Light emitted by luciferase and fluorescence emitted by dye binding to DNA (excitation 485 nm and emission 525 nm) were measured at 24 h, 48 h, and 72 h after incubation using plate based luminescence and fluorescence plate readers.

The subject of data set [4] is New Zealand White rabbits. As to the kind of experiment: Sodium hyaluronate-induced acute ocular hypertension, IOP. Type of data set: in vivo, rabbit. An excerpt:
In all studies, male New Zealand White rabbits were acclimatized for one week before the study. Animals were given food and water ad libitum. Body weights of rabbits ranged from 2 to 3 kg. Animals were trained for the IOP measurement procedure during the acclimation period in order to reduce stress and obtaining more accurate measurements during the study. IOP measurements were taken using the Icare® TONOVET Plus tonometer. […] IOP readings are obtained only when the tonometer is held an appropriate distance and in the correct plane relative to the ocular surface. Green light appears when the orientation is correct, thereby minimizing operator errors. Measurements were performed at the same time of day by the same person using the same instrument. Sodium hyaluronate-induced acute ocular hypertension study. Sodium hyaluronate injection into the anterior chamber of rabbit eye creates acute ocular hypertensive status. […] Another group of four animals with elevated IOP received saline only in right eyes. The left eyes of both groups were instilled topically with 30 μl saline eye drop.

The test system of another data set is HEK293 cells. As to the kind of experiment: CellTiter-Glo Luminescent Cell Viability Assay. The following applies: HEK293 cells, 25, 2.5, or 0.25 μM, two days.

Sequence of ROCK2 (O75116 whole entry): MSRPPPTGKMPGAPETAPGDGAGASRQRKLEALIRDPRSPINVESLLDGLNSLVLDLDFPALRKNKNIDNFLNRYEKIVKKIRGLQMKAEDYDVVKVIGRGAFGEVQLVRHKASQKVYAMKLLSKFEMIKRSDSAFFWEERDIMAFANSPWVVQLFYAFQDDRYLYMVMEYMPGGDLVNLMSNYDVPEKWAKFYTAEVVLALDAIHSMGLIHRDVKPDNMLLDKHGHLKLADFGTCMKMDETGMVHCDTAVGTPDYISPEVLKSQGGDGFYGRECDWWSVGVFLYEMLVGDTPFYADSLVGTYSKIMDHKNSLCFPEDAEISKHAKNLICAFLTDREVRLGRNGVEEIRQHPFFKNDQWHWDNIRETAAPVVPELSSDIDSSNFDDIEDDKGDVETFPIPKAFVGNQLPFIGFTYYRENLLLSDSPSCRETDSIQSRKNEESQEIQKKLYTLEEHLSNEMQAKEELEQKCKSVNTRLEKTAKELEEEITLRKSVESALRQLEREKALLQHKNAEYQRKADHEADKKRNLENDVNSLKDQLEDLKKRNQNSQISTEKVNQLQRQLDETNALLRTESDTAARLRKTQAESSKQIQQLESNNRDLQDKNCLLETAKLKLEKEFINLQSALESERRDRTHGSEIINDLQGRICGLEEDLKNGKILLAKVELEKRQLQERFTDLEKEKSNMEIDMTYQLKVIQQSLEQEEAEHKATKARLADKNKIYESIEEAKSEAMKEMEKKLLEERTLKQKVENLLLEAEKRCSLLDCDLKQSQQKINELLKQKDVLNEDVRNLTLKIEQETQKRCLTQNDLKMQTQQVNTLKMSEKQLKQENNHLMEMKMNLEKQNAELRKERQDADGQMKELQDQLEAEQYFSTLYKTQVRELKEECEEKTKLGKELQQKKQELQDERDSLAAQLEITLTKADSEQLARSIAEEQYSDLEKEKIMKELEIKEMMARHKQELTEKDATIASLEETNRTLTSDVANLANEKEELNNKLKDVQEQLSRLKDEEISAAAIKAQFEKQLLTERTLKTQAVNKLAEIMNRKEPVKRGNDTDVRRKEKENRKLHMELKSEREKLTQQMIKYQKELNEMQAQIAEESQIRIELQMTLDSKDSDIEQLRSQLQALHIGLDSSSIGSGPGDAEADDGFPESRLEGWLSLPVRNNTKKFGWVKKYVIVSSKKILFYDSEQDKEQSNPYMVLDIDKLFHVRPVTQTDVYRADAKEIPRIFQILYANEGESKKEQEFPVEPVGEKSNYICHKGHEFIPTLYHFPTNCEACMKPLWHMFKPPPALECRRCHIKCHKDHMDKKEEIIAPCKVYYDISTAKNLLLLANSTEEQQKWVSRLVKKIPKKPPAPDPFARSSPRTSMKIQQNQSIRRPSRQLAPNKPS

For orientation: pIC50 means −log10 of the IC50, conventionally taken in molar units. Take `Cl.Cl.NCC(C(=O)Nc1ccc2cnccc2c1)c1ccc(B(O)O)cc1` (stereo not drawn) [Compound 10•2HCl]: the negative logarithm of the IC50 (pIC50) at ROCK2 is 7.55; in data set [1] it was 5.85. Besides, the inhibition at 1 µM on CDK2/CyclinE1 amounted to 11%. For the same compound, the “Effect on viability (in words)” value with primary hTM cells [2] was “no effect on viability or membrane integrity”. Moreover, the “Cytotoxicity / membrane integrity (in words)” value with primary hTM cells [3] is given as “no effect on viability or membrane integrity”. In addition, the “Duration of IOP effect” value in data set [4] (experiment 1, 1 mg/ml eye drop) is 6 h. Besides, the “Effect on IOP compared to saline only group” value in data set [4] (experiment 1, 30 μl eye drop in saline (1 mg/ml, 2.34 mM) two hours after hyaluronate injection) is reported as “decreased IOP significantly within 1 hour after application”. For the same compound, the “Effect on IOP” value in data set [4] (experiment 2, compound 10.2HCl 1 mg/ml (2.34 mM), Netarsudil.2HCl 0.25 mg/ml (0.47 mM), 30 μL eye drop) is “reduced IOP significantly within 1 hour after eye drop application”. Moreover, the “Cell viability (ATP amount)” value in the data set with HEK293 cells is listed as “same amount of ATP as cells without inhibitor”.
